What was measured:
[1] = system: NeuN+ neurons; assay: Fluorescence tracing of intranasal Alex546-Ins in rat brain sections; format: in vivo; settings: rat brain sections after intranasal Alex546-Ins
[2] = monkeys, intranasal administration; ref Thorne et al., 2008; cited from earlier work

Molecule: Alexa Fluor 546-labeled insulin [Alex546-Ins]
- Cell type binding Alex546-Ins (NeuN double-immunostaining) [1]: on the membrane of NeuN^+ neurons

B1: I^125-interferon-β1b (protein, UniProt P01574 22-187, looked up, variant C17S)
Interferon beta: MSYNLLGFLQRSSNFQSQKLLWQLNGRLEYCLKDRMNFDIPEEIKQLQQFQKEDAALTIYEMLQNIFAIFRQDSSSTGWNETIVENLLANVYHQINHLKTVLEEKLEKEDFTRGKLMSSLHLKRYYGRILHYLKAKEYSHCAWTIVRVEILRNFYFINRLTGYLRN
modifications: I-125 radiolabel
- Time of earliest detection in CSF [2]: ≤ 30 min

Source: paper PMC6404510 (Neural Regeneration Research, 2019)
